This note sets out measurements from paper PMC9578474, “In vitro and in silico β-lactamase inhibitory properties and phytochemical profile of Ocimum basilicum cultivated in central delta of Egypt” (Pharmaceutical Biology, 2022).

This assay has as its system T1, CTX-M β-lactamase (ESBL).
T1 construct: gene blaCTX-M
Kind of assay: nitrocefin hydrolysis colorimetric assay (kit MAK222) with cell-free lysate of ESBL-producing E. coli. It is filed as biochemical.

`O=C(O)[C@H]1/C(=C/CO)O[C@@H]2CC(=O)N21` [clavulanic acid]: the Value clavulanic acid was found to be 8.1223 µg/mL.
In the case of `COC(=O)/C=C/c1ccccc1` [Methyl cinnamate], the Value methyl cinnamate came out at 11.6008 µg/mL.
